# Measurements taken from patent US20110245284A1, “Alkoxy- and Alkylthio-Substituted Anilinopyrimidines” (Bayer CropScience AG, priority 2008, published 2011).
# Key:
# [1] = logP by HPLC on reversed-phase columns (C 18), method [a], acidic range pH 2.3; assay type: physicochemical; settings: for chromatographic logP: pH 2.3, logP (pH2.3)
# Protocol: (§1) The logP values were determined in accordance with EEC Directive 79/831 Annex V.A8 by HPLC (High Performance Liquid Chromatography) on reversed-phase columns (C 18), using the methods below:
# [a] The determination is carried out in the acidic range at pH 2.3 using the mobile phases 0.1% aqueous phosphoric acid and acetonitrile, linear gradient from 10% acetonitrile to 95% acetonitrile.
# [2] = logP by LC-MS on reversed-phase columns (C 18), method [c], neutral range pH 7.8; assay type: physicochemical; settings: pH 7.8
# Protocol: as §1
# [c] The LC-MS determination in the neutral range is carried out at pH 7.8 using the mobile phases 0.001 molar aqueous ammonium bicarbonate solution and acetonitrile, linear gradient from 10% acetonitrile to 95% acetonitrile.
# [3] = test system: Leptosphaeria nodorum; test: Leptosphaeria nodorum test (wheat) / protective; assay type: in vivo; settings: Parastagonospora nodorum, active compound concentration 500 ppm, evaluation 7-9 days after inoculation, read-out: efficacy
# Protocol: Thereafter, the plants are placed in a greenhouse at 90% relative atmospheric humidity and a temperature of 22° C.
# [4] = logP by LC-MS on reversed-phase columns (C 18), method [b], acidic range pH 2.7; assay type: physicochemical; settings: pH 2.7, log p
# Protocol: as §1
# [b] The LC-MS determination in the acidic range is carried out at pH 2.7 using the mobile phases 0.1% aqueous formic acid and acetonitrile (contains 0.1% formic acid), linear gradient from 10% acetonitrile to 95% acetonitrile.
# [5] = test system: Sphaerotheca fuliginea; test: Sphaerotheca test (cucumber) / protective; assay type: in vivo; settings: Podosphaera fuliginea, 168 h, active compound concentration 500 ppm, evaluation 7 days after inoculation, read-out: efficacy
# Protocol: The plants are subsequently placed in a greenhouse at 70% relative atmospheric humidity and a temperature of 23° C.
# [6] = test system: Pyricularia oryzae; test: whole plant or invertebrate; assay type: in vivo; settings: 120 h, read-out: efficacy
Structure (SMILES),chromatographic logP [1],pest or weed control at 500 ppm [3],chromatographic logP [4],pest or weed control at 500 ppm [5],other results
"CCSC(C)c1cccc([N+](=O)[O-])c1 (stereo not drawn) [VIc-I-4, 1-[1-(Ethylsulphanyl)ethyl]-3-nitrobenzene]",3.48,,,,
"CCC(SC)c1cccc(N)c1 (stereo not drawn) [IVc-I-1, 3-[1-(Methylsulphanyl)propyl]aniline]",1.49,,,,
CCSC(CC)c1cccc(Nc2ncc(Cl)c(NC3CC3)n2)c1 (stereo not drawn) [Example 115],,≥ 70%,3.33,≥ 70%,chromatographic logP [2]: 4.69
CCCNc1nc(Nc2cccc(COC)c2)ncc1Cl [Example 149],,≥ 70%,1.72,≥ 70%,
"CC(O)c1cccc(Nc2ncc(Br)c(NC3CC3)n2)c1 (stereo not drawn) [Ic-IV-2, 1-(3 -{[5-Bromo-4-(cyclopropylamino)pyrimidin-2-yl]amino}phenyl)ethanol]",1.31,,,,
"CCSC(CC)c1cccc([N+](=O)[O-])c1 (stereo not drawn) [VIc-I-3, 1-[1-(Ethylsulphanyl)propyl]-3-nitrobenzene]",3.96,,,,
CCSCc1cccc(Nc2ncc(Cl)c(NC3CCC3)n2)c1 [Example 219],,≥ 70%,3,≥ 70%,chromatographic logP [2]: 4.44
"CC(C)CCSc1cccc(Nc2ncc(Cl)c(Cl)n2)c1 [Xa-4, 4,5 -Dichloro-N-{3-[(3-methylbutyl)sulphanyl]phenyl}pyrimidin-2-amine]",4.98,,,,
"CCSC(C)c1cccc(Nc2ncc(C(F)(F)F)c(Cl)n2)c1 (stereo not drawn) [Xa-12, 4-Chloro-N-{3-[1-(ethylsulphanyl)ethyl]phenyl}-5-(trifluoromethyl)pyrimidin-2-amine]",4.9,,,,
CCC(C)S(=O)(=O)C(C)c1cccc(Nc2ncc(C(F)(F)F)c(NC3CC3)n2)c1 (stereo not drawn) [Example 187],,≥ 70%,3.14,≥ 70%,chromatographic logP [2]: 3.34
"CCC(Cl)c1cccc([N+](=O)[O-])c1 (stereo not drawn) [VIIa-1, 1-(1-Chloropropyl)-3-nitrobenzene]",3.31,,,,
"CCSC(C)c1cccc(N)c1 (stereo not drawn) [IVc-I-4, 3-[1-(Ethylsulphanyl)ethyl]aniline]",1.46,,,,
COCc1cccc(Nc2ncc(Cl)c(N(C)C3CC3C)n2)c1 (stereo not drawn) [Example 199],,≥ 70%,3.23,≥ 70%,chromatographic logP [2]: 4.36
COCc1cccc(Nc2ncc(Cl)c(NCCCN3CCCCCC3=O)n2)c1 [Example 52],,,,,log p ([1]; pH 2.3): 1.67[a]
"COCCOC(c1cccc(N)c1)C(F)(F)F (stereo not drawn) [IVc-I-6, 3-[2,2,2-Trifluoro-1-(2-methoxyethoxy)ethyl]aniline]",1.64,,,,
CCCSc1cccc(Nc2ncc(Cl)c(NCC(F)(F)F)n2)c1 [Example 30],,,4.08,≥ 70%,
CCCC[S+]([O-])c1cccc(Nc2ncc(C(F)(F)F)c(NC3CCC3)n2)c1 (stereo not drawn) [Example 203],,≥ 70%,3.4,≥ 70%,chromatographic logP [2]: 3.67
"CC(C)Sc1cccc(Nc2ncc(C(F)(F)F)c(Cl)n2)c1 [Xa-2, 4-Chloro-N-[3-(propan-2-ylsulphanyl)phenyl]-5-(trifluoromethyl)pyrimidin-2-amine]",4.93,,,,
"CCCS(=O)(=O)c1cccc(Nc2ncc(C(F)(F)F)c(Cl)n2)c1 [Xc-1, 4-chloro-N-[3-(propylsulphonyl)phenyl]-5-(trifluoromethyl)pyrimidin-2-amine]",3.29,,,,
CSC(C)c1cccc(Nc2ncc(C(F)(F)F)c(NC3CCC3)n2)c1 (stereo not drawn) [Example 18],,≥ 70%,4.34,≥ 70%,
"COC(C)c1cccc(Nc2ncc(Br)c(Cl)n2)c1 (stereo not drawn) [Xa-13, 5-Bromo-4-chloro-N-[3-(1-methoxyethyl)phenyl]pyrimidin-2-amine]",3.09,,,,
"CC(C)Sc1cccc(Nc2ncc(Cl)c(Cl)n2)c1 [Xa-6, 4,5-Dichloro-N-[3-(propan-2-ylsulphanyl)phenyl]pyrimidin-2-amine]",4.04,,,,
"FC(F)(F)c1cnc(Cl)nc1NC1CC1 [Example V-21, 2-Chloro-N-cyclopropyl-5-(trifluoromethyl)pyrimidin-4-amine]",2.38,,,,
"CC(C)CSc1cccc(Nc2ncc(C(F)(F)F)c(Cl)n2)c1 [Xa-7, 4-Chloro-N-{3-[(2-methylpropyl)sulphanyl]phenyl}-5-(trifluoromethyl)pyrimidin-2-amine]",5.4,,,,
"Clc1ncc(I)c(NC2CCC2)n1 [Example V-3, 2-Chloro-N-cyclobutyl-5-iodine-pyrimidin-4-amine]",,,,,"logP (pH2.3) ([1]; pH 2.3, HPLC reversed-phase C 18): 3.08"

Structure (SMILES),chromatographic logP [1],pest or weed control at 500 ppm [3],chromatographic logP [4],pest or weed control at 500 ppm [5],other results
CCS(=O)(=O)C(C)c1cccc(Nc2ncc(Cl)c(NC(C)C)n2)c1 (stereo not drawn) [Example 150],,≥ 70%,1.65,≥ 70%,chromatographic logP [2]: 2.89
"CC(O)c1cccc(Nc2ncc(Cl)c(Cl)n2)c1 (stereo not drawn) [Xa-14, 1-{3-[(4,5-Dichloropyrimidin-2-yl)amino]phenyl}ethanol]",1.98,,,,
COCc1cccc(Nc2ncc(Cl)c(NCC(F)F)n2)c1 [Example 22],,≥ 70%,1.99,≥ 70%,
"COCC(O)c1cccc([N+](=O)[O-])c1 (stereo not drawn) [2-methoxy-1-(3-nitrophenyl)ethanol, 2-Methoxy-1-(3-nitrophenyl)ethanol]",1.35,,,,
"CC(O)c1cccc(Nc2ncc(C(F)(F)F)c(Cl)n2)c1 (stereo not drawn) [Xa-15, 1-(3-{[4-Chloro-5-(trifluoromethyl)pyrimidin-2-yl]amino}phenyl)ethanol]",2.81,,,,
CCSCc1cccc(Nc2ncc(Cl)c(NCC(F)(F)F)n2)c1 [Example 32],,,3.49,≥ 70%,
"CC(O)c1cccc(Nc2ncc(C(F)(F)F)c(NC3CC3)n2)c1 (stereo not drawn) [Ic-IV-3, 1-(3 -{[4-(Cyclopropylamino)-5-(trifluoromethyl)pyrimidin-2-yl]amino}phenyl)ethanol]",2.01,,,,
CCCSc1ccc(Nc2ncc(Cl)c(NC3CC3)n2)cc1 [Example 96],,≥ 70%,3.09,,pest or weed control at 250 ppm [6]: ≥ 80%
"CCSC(CC)c1cccc(N)c1 (stereo not drawn) [IVc-I-3, 3-[1-(Ethylsulphanyl)propyl]aniline]",1.94,,,,
CCSCc1cccc(Nc2ncc(Br)c(NC3CC3)n2)c1 [Example 218],,≥ 70%,2.79,≥ 70%,
COC(C)c1cccc(Nc2ncc(Cl)c(NC3CC3C)n2)c1 (stereo not drawn) [Example 228],,≥ 70%,0.95,≥ 70%,
"CSC(C)c1cccc([N+](=O)[O-])c1 (stereo not drawn) [VIc-I-2, 1-[1-(Methylsulphanyl)ethyl]-3-nitrobenzene]",3.06,,,,
CCC(C)[S+]([O-])C(C)c1cccc(Nc2ncc(C(F)(F)F)c(NC3CC3)n2)c1 (stereo not drawn) [Example 160],,≥ 70%,2.85,≥ 70%,chromatographic logP [2]: 3.11
"CCCSc1cccc(Nc2ncc(C(F)(F)F)c(Cl)n2)c1 [Xa-1, 4-Chloro-N-[3-(propylsulphanyl)phenyl]-5-(trifluoromethyl)pyrimidin-2-amine]",4.99,,,,
COCCOc1cccc(Nc2ncc(Br)c(NC3CC3)n2)c1 [Example 67],,≥ 70%,1.95,≥ 70%,
COCc1cccc(Nc2ncc(Cl)c(NCC(C)C)n2)c1 [Example 148],,≥ 70%,2.08,≥ 70%,
"FC(F)(F)c1cnc(Cl)nc1NCC1CC1 [Example V-22, 2-Chloro-N-(cyclopropylmethyl)-5-(trifluoromethyl)pyrimidin-4-amine]",2.98,,,,
CSC(C)c1cccc(N)c1 (stereo not drawn) [IVc-I-2],,,,,logP (pH2.3) ([1]; pH 2.3): 1.03
"CSc1cccc(Nc2ncc(C(F)(F)F)c(Cl)n2)c1 [Xa-11, 4-Chloro-N-[3-(methylsulphanyl)phenyl]-5-(trifluoromethyl)pyrimidin-2-amine]",4.11,,,,
COCC(=O)c1cccc(Nc2ncc(C(F)(F)F)c(NC3CC3)n2)c1 [Example 225],,≥ 70%,2.54,≥ 70%,
"Clc1ncc(Cl)c(NC2CC2)n1 [Example V-4, 2,5-Dichloro-N-cyclopropylpyrimidin-4-amine]",1.77,,,,
"COCC(O)c1cccc(N)c1 (stereo not drawn) [IVc-I-7, 1-(3-Aminophenyl)-2-methoxyethanol]",,,,,logP (pH2.3) ([1]; pH 2.3): 0.73
"CCCSc1cccc(Nc2ncc(Cl)c(Cl)n2)c1 [Xa-5, 4,5-Dichloro-N-[3-(propylsulphanyl)phenyl]pyrimidin-2-amine]",4.1,,,,
CCN(C)c1nc(Nc2cccc(COC)c2)ncc1Cl [Example 85],,≥ 70%,2.14,≥ 70%,chromatographic logP [2]: 3.7
